The values that follow come from US4303640A, “Oil-in-water organophosphorus insecticidal emulsion” (priority 1979, dated 1981).

A short description of data set [1]: physchem. The note with it: water.
The nature of data set [2]: size of emulsified particles of the active ingredient (microscope). The data set is classed as physicochemical. The note with it: oil-in-water emulsion, as prepared. As for the experimental part: A brief description of the method of producing the oil-in-water insecticidal emulsion of this invention will be given below. First, an insecticidally active liquid ingredient of the organophosphorus compound is added to a 2 to 20 wt% aqueous solution of polyvinyl alcohol or gum arabic, and a conventonal stirrer such as a T.K. Homomixer (a homogenizer manufactured by Tokushu Kika Kogyo Co., Ltd.) or a Shinagawa All-Purpose Mixer (a mixer manufactured by San-Ei-Seisakusho, Ltd.) is used to disperse the particles of the active ingredient (A.I.), generally at ambient temperature or, if necessary, at an elevated temperature (about 40° to 80° C.). The size of the emulsified particles of the active ingredient can be varied wihtin the range of from about 1 to 200μ depending upon the stirring force or the content of polyvinyl alcohol or gum arabic. A microscope is used to check the size of the emulsified particles of the active ingredient. Finally, for the purpose of preventing settling of the emulsified particles and improving the dispersion stability, an aqueous solution of a thickener is added to the emulsion in a suitable amount. The resulting oil-in-water insecticidal emulsion remains stable for an extended period. […]

In brackets after ≈: the same amount, converted by molar mass.

Regarding `COP(=O)(Cc1cccc(C#N)c1)OC`, the “water-solubility at 10° C.” value was “ca. 6,000 ppm”. In addition, the solubility (commonly the dissolved amount per volume that the medium holds) in data set [1] is roughly 6000 µg/mL (≈ 26600 µM).

In the case of `COP(=S)(OC)Oc1ccc([N+](=O)[O-])c(C)c1` [Compound (1), O,O-dimethyl O-(3-methyl-4-nitrophenyl)phosphorothioate], in data set [2], the “Particle Size of emulsified active ingredient” value fell in the range of 1 to 30 μ. Besides, the solubility in data set [1] turned out to be 5 µg/mL (≈ 18 µM).

As for `CCOC(=O)CC(SP(=S)(OC)OC)C(=O)OCC` (stereo not drawn) [Compound (2), O,O-dimethyl S-[1,2-di-(ethoxycarbonyl)ethyl]-phosphorodithioate], in data set [1], the solubility is 145 µg/mL (≈ 439 µM).

On to `COP(=S)(OC)Oc1ccc(C#N)cc1` [Compound (3), O,O-dimethyl O-(4-cyanophenyl)phosphorothioate], for which the “Particle Size of emulsified active ingredient” value in data set [2] lay in the range of 1 to 50 μ. Further, in data set [1], the solubility was determined as 28 µg/mL (≈ 115 µM).

In data set [1], `CCOC(=O)C(SP(=S)(OC)OC)c1ccccc1` (stereo not drawn) [Compound (4), O,O-dimethyl S-[α-(ethoxycarbonyl)benzyl]-phosphorodithioate] displayed a solubility of 4 µg/mL (≈ 12.5 µM).
